Reference: ChEMBL document CHEMBL3352542, “Synthesis, biological evaluation and molecular modeling study of 2-(1,3,4-thiadiazolyl-thio and 4-methyl-thiazolyl-thio)-quinazolin-4-ones as a new class of DHFR inhibitors” (Bioorg Med Chem Lett, 2014)

Legend:
[1] = tested on: Candida albicans; assay: Antimicrobial activity against Candida albicans assessed as inhibition zone at 200 ug/disk after 24 hrs by disc-diffusion method; type: functional; details: read-out: IZ
[2] = tested on: MDA-MB-231; assay: Growth inhibition of human MDA-MB-231 cells at 10 uM after 48 hrs; type: functional; details: MDA-MB-231, 48 h, read-out: GI
[3] = Growth inhibition of human BT549 cells at 10 uM after 48 hrs; type: functional; details: BT-549, 48 h, read-out: GI
[4] = target: T1, Dihydrofolate reductase (Bos taurus, UniProt P00376); assay: Inhibition of bovine liver DHFR
T1 sequence (P00376 whole entry): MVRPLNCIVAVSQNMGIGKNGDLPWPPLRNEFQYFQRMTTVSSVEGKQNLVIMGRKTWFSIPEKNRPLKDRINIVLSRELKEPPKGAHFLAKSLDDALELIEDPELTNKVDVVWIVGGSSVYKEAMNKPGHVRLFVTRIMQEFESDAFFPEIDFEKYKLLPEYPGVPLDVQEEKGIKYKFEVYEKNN

[5] = tested on: SNB-19; assay: Growth inhibition of human SNB19 cells at 10 uM after 48 hrs; type: functional; details: SNB-19, 48 h, read-out: GI
[6] = Growth inhibition of human HOP92 cells at 10 uM after 48 hrs; type: functional; details: HOP-92, 48 h, read-out: GI
[7] = tested on: A549; assay: Growth inhibition of human A549 cells at 10 uM after 48 hrs; type: functional; details: A549, 48 h, read-out: GI
[8] = Growth inhibition of human UACC257 cells at 10 uM after 48 hrs; type: functional; details: UACC-257, 48 h, read-out: GI
[9] = Growth inhibition of human UACC62 cells at 10 uM after 48 hrs; type: functional; details: UACC-62, 48 h, read-out: GI
[10] = Growth inhibition of human HCT15 cells at 10 uM after 48 hrs; type: functional; details: HCT-15, 48 h, read-out: GI
[11] = tested on: SF-268; assay: Growth inhibition of human SF268 cells at 10 uM after 48 hrs; type: functional; details: SF-268, 48 h, read-out: GI
[12] = tested on: M14; assay: Growth inhibition of human M14 cells at 10 uM after 48 hrs; type: functional; details: M14, 48 h, read-out: GI
[13] = tested on: Bacillus subtilis; assay: Antimicrobial activity against Bacillus subtilis assessed as inhibition zone at 200 ug/disk after 24 hrs by disc-diffusion method; type: functional; details: read-out: IZ
[14] = Growth inhibition of human OVCAR8 cells at 10 uM after 48 hrs; type: functional; details: OVCAR-8, 48 h, read-out: GI
[15] = Growth inhibition of human NCI-ADR-RES cells at 10 uM after 48 hrs; type: functional; details: read-out: GI
[16] = Growth inhibition of human SF539 cells at 10 uM after 48 hrs; type: functional; details: SF-539, 48 h, read-out: GI
[17] = tested on: HT-29; assay: Growth inhibition of human HT-29 cells at 10 uM after 48 hrs; type: functional; details: HT-29, 48 h, read-out: GI
[18] = Growth inhibition of human SF295 cells at 10 uM after 48 hrs; type: functional; details: SF-295, 48 h, read-out: GI
[19] = tested on: KM12; assay: Growth inhibition of human KM12 cells at 10 uM after 48 hrs; type: functional; details: KM12, 48 h, read-out: GI
[20] = Growth inhibition of human MOLT4 cells at 10 uM after 48 hrs; type: functional; details: MOLT-4, 48 h, read-out: GI
[21] = tested on: Pseudomonas aeruginosa; assay: Antimicrobial activity against Pseudomonas aeruginosa assessed as inhibition zone at 200 ug/disk after 24 hrs by disc-diffusion method; type: functional; details: read-out: IZ
[22] = Growth inhibition of human UO31 cells at 10 uM after 48 hrs; type: functional; details: UO-31, 48 h, read-out: GI
[23] = tested on: 786-0; assay: Growth inhibition of human 786-0 cells at 10 uM after 48 hrs; type: functional; details: 786-0, 48 h, read-out: GI
[24] = tested on: SR; assay: Growth inhibition of human SR cells at 10 uM after 48 hrs; type: functional; details: read-out: GI
[25] = tested on: SN12C; assay: Growth inhibition of human SN12C cells at 10 uM after 48 hrs; type: functional; details: read-out: GI
[26] = tested on: T47D; assay: Growth inhibition of human T47D cells at 10 uM after 48 hrs; type: functional; details: read-out: GI
[27] = tested on: U-251; assay: Growth inhibition of human U251 cells at 10 uM after 48 hrs; type: functional; details: U-251, 48 h, read-out: GI
[28] = Growth inhibition of human HCT116 cells at 10 uM after 48 hrs; type: functional; details: HCT-116, 48 h, read-out: GI
[29] = tested on: Staphylococcus aureus; assay: Antimicrobial activity against Staphylococcus aureus assessed as inhibition zone at 200 ug/disk after 24 hrs by disc-diffusion method; type: functional; details: read-out: IZ
[30] = Growth inhibition of human RXF393 cells at 10 uM after 48 hrs; type: functional; details: RXF 393, 48 h, read-out: GI
[31] = tested on: NCI-H23; assay: Growth inhibition of human NCI-H23 cells at 10 uM after 48 hrs; type: functional; details: NCI-H23, 48 h, read-out: GI
[32] = tested on: K562; assay: Growth inhibition of human K562 cells at 10 uM after 48 hrs; type: functional; details: K562, 48 h, read-out: GI
[33] = Growth inhibition of human LOXIMVI cells at 10 uM after 48 hrs; type: functional; details: LOX IMVI, read-out: GI
[34] = tested on: A498; assay: Growth inhibition of human A498 cells at 10 uM after 48 hrs; type: functional; details: A498, 48 h, read-out: GI
[35] = Growth inhibition of human Hs 578T cells at 10 uM after 48 hrs; type: functional; details: read-out: GI
[36] = tested on: Escherichia coli; assay: Antimicrobial activity against Escherichia coli assessed as inhibition zone at 200 ug/disk after 24 hrs by disc-diffusion method; type: functional; details: read-out: IZ
[37] = Growth inhibition of human PC3 cells at 10 uM after 48 hrs; type: functional; details: PC-3, 48 h, read-out: GI
[38] = tested on: SK-MEL-5; assay: Growth inhibition of human SK-MEL-5 cells at 10 uM after 48 hrs; type: functional; details: SK-MEL-5, 48 h, read-out: GI
[39] = Growth inhibition of human OVCAR5 cells at 10 uM after 48 hrs; type: functional; details: OVCAR-5, 48 h, read-out: GI
[40] = tested on: CAKI-1; assay: Growth inhibition of human CAKI-1 cells at 10 uM after 48 hrs; type: functional; details: CAKI-1, 48 h, read-out: GI

`Cc1ccc2nc(Sc3sc(N)nc3C)n(-c3ccc(Cl)cc3)c(=O)c2c1` gave a zone of inhibition at 200 µg/disc [1] of 8 mm, an inhibition of growth at 10 µM [2] of 13% and an inhibition of growth at 10 µM [3] of 33.1%. For the same compound, the IC50 [4] was 7 µM, the inhibition of growth at 10 µM [5] was 11.6% and the inhibition of growth at 10 µM [6] was 43.3%. For the same compound, the inhibition of growth at 10 µM [7] was 16.9%, the inhibition of growth at 10 µM [8] was 13.6% and the inhibition of growth at 10 µM [9] was 26%. It also gave an inhibition of growth at 10 µM [10] of 27.7%, an inhibition of growth at 10 µM [11] of 13.2% and an inhibition of growth at 10 µM [12] of 15.6%. For the same compound, the zone of inhibition at 200 µg/disc [13] was 8 mm, the inhibition of growth at 10 µM [14] was 10.8% and the inhibition of growth at 10 µM [15] was 17.5%. The inhibition of growth at 10 µM [16] was 13.9%, the inhibition of growth at 10 µM [17] was 11.7% and the inhibition of growth at 10 µM [18] was 18.2%. For the same compound, the inhibition of growth at 10 µM [19] was 24.6%, the inhibition of growth at 10 µM [20] was 19% and the zone of inhibition at 200 µg/disc [21] was 8 mm. The inhibition of growth at 10 µM [22] was 46%, the inhibition of growth at 10 µM [23] was 29.3% and the inhibition of growth at 10 µM [24] was 49.2%. It also gave an inhibition of growth at 10 µM [25] of 12.8%, an inhibition of growth at 10 µM [26] of 12.4% and an inhibition of growth at 10 µM [27] of 21.5%. For the same compound, the inhibition of growth at 10 µM [28] was 22.8%, the zone of inhibition at 200 µg/disc [29] was 8 mm and the inhibition of growth at 10 µM [30] was 28.5%. For the same compound, the inhibition of growth at 10 µM [31] was 10.1%, the inhibition of growth at 10 µM [32] was 15.6% and the inhibition of growth at 10 µM [33] was 16.5%. The inhibition of growth at 10 µM [34] was 53%, the inhibition of growth at 10 µM [35] was 12.6% and the zone of inhibition at 200 µg/disc [36] was 8 mm. For the same compound, the inhibition of growth at 10 µM [37] was 28.6%, the inhibition of growth at 10 µM [38] was 16.3% and the inhibition of growth at 10 µM [39] was 12.1%. For the same compound, the inhibition of growth at 10 µM [40] was 11.2%.
